In the first assay the target is T1, Mitogen-activated protein kinase 14 (Homo sapiens, UniProt Q16539). Nature of the assay: Binding affinity for Mitogen-activated protein kinase p38 alpha.
T1 sequence (Q16539 whole entry): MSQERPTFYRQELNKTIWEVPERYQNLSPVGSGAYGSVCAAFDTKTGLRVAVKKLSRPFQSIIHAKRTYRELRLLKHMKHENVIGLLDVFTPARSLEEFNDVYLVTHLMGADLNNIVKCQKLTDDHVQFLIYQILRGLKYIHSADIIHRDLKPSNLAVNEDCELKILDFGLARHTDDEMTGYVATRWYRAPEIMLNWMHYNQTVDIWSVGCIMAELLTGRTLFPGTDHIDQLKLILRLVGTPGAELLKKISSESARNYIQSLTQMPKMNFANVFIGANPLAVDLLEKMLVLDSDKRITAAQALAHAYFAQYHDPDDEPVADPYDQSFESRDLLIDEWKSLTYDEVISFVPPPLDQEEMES
As a reminder, the Kd is a measure of binding affinity in units of concentration. In turn, `Cc1ccc(-n2nc(C(C)(C)C)cc2NC(=O)Nc2ccc(OCCN3CCOCC3)c3ccccc23)cn1` displayed a dissociation constant Kd of 1.1 nM. In turn, `CC(C)c1cc(NC(=O)Nc2ccc(OCCN3CCOCC3)c3ccccc23)n(-c2ccccc2)n1` gave a Kd of 5.9 nM.

The molecule `Cc1ccc(-n2nc(C(C)(C)CO)cc2NC(=O)Nc2ccc(OCCN3CCOCC3)c3ccccc23)cc1` returned a dissociation constant Kd of 16 nM. As to `Cc1ccc(-n2nc(C(C)(C)C)cc2NC(=O)Nc2ccccc2)cc1`, the dissociation constant (Kd) turned out to be 22 nM. `Cc1ccc(-n2nc(C(C)(C)C)cc2NC(=O)Nc2ccc(OCCN3CCOCC3)c3ccccc23)cc1C(=O)O` displayed a Kd of 2.5 nM. For `COc1cc(NC(=O)Nc2cc(C(C)(C)C)nn2-c2ccc(C)cc2)c2ccccc2c1OCCN1CCOCC1`, binding was characterised by a dissociation constant (Kd) of 14 nM. In the case of `Cn1nc(C(C)(C)C)cc1NC(=O)Nc1ccc(OCCN2CCOCC2)c2ccccc12`, the affinity, expressed as Kd, was 23 nM. Consider `O=C(Nc1ccc(OCCN2CCOCC2)c2ccccc12)Nc1ccnn1-c1ccccc1`, for which the affinity, expressed as Kd, was 2000 nM. As to `CC(C)(C)c1cc(NC(=O)Nc2ccc(OCCN3CCOCC3)c3ccccc23)n(-c2ccccc2)n1`, the equilibrium dissociation constant (Kd) was 0.097 nM. Still for that read-out and setting: next, `Cc1ccc(-n2nc(C(C)(C)C)cc2NC(=O)Nc2ccc(OCCN3CCOCC3)c3ccccc23)cc1CN(C)C`: 4.8 nM; `CN(C)Cc1cccc(-n2nc(C(C)(C)C)cc2NC(=O)Nc2ccc(OCCN3CCOCC3)c3ccccc23)c1`: 16 nM; `Cc1ccc(-n2nc(C(C)(C)C)cc2NC(=O)Nc2ccc(CCCN3CCOCC3)c3ccccc23)cc1`: 1.2 nM. Molecule `Cc1ccc(-n2nc(C(C)(C)C)cc2NC(=O)Nc2cccc3ccccc23)cc1` had a dissociation constant (Kd) of 1.1 nM.

On to `COc1cc(NC(=O)Nc2cc(C(C)(C)C)nn2-c2ccc(C)cc2)c2ccccc2c1`, for which binding was characterised by a dissociation constant (Kd) of 9.4 nM.

For another assay, the target named is T1, Mitogen-activated protein kinase 14.
Description: Rate of dissociation from Mitogen-activated protein kinase p38 alpha
Molecule `Cc1ccc(-n2nc(C(C)(C)C)cc2NC(=O)Nc2ccc(OCCN3CCOCC3)cc2)cc1` registered a k off of 0.0039 s⁻¹. In turn, `Cc1ccc(-n2nc(C(C)(C)C)cc2NC(=O)Nc2ccc(OCCN3CCOCC3)c3ccccc23)cc1C(=O)O` returned a k off of 6.2e-05 s⁻¹.

A further assay shares this target. This is another data set of the same source.
Description: Rate of association to Mitogen-activated protein kinase p38 alpha
Regarding `Cc1ccc(-n2nc(C(C)(C)C)cc2NC(=O)Nc2ccc(OCCN3CCOCC3)cc2)cc1`, the k on was 13000 M⁻¹ s⁻¹. As for `Cc1ccc(-n2nc(C(C)(C)C)cc2NC(=O)Nc2ccc(OCCN3CCOCC3)c3ccccc23)cc1C(=O)O`, the k on came out at 25200 M⁻¹ s⁻¹.

Source of the values: ChEMBL document CHEMBL1146625, “The kinetics of binding to p38MAP kinase by analogues of BIRB 796” (Bioorg Med Chem Lett, 2003).
